Results as given in patent publication US7056734B1, “Differentiation of non-insulin producing cells into insulin producing cells by GLP-1 or exendin-4 and uses thereof” (The United States of America as represented by the …, priority 1998, dated 2006).

Columns and labels:
Biological half-life = format: in vivo; details: compared with several minutes for GLP-1
non-diabetic mice = assay: Daily ip exendin-4 in non-diabetic littermates; format: in vivo, mouse
Description: Animals. Four month old Wistar rats from the Wistar colony in the NIA (Baltimore, Md.) were used for the acute experiments of the effects of exendin-4 and GLP-1 (see Example 1). They had been maintained on standard lab chow and fed ad libitum. For the long-term experiments, diabetic mice (C57BLKS/J-Lepr^db/Lepr^db) lacking the leptin receptor, and their non-diabetic littermates were purchased at 4 weeks of age from Jackson Laboratories (Bar Harbor, Me.). They were housed two per cage and also were fed ad libitum. The same mice were caged together for the duration of the study. Wistar rats are caged on wire while the bedding for the mice was a paper based product, “Carefresh” (Absorption Co., Bellingham, Wash.).
Eleven diabetic and 10 non-diabetic animals received […] exendin-4 ip daily thereafter (7–9 am) while 10 diabetic and 10 non-diabetic animals received ip NaCl. Subsequently, whole blood glucose levels, taken from a retro-orbital sinus, were determined in the mice using a Glucometer Elite (Bayer). This regimen was continued for 12–13 weeks. […] Animals were weighed weekly. After one week of the regimen blood samples were again taken from a retro-orbital sinus for determination of insulin and glucose levels. At the end of the regimen, fasting blood samples were obtained for glucose and insulin levels and whole blood containing EDTA was assayed for hemoglobin A1c (Hb A1c) on the same day from the four groups.
Assays. Plasma glucose was measured by the glucose oxidase method (Wang et al., 1997). Insulin was measured by RIA as previously described (See Example 1). Hb A1c was assayed using a BIO-RAD (Herculas Calif.) DiaSTAT machine which uses low pressure cation exchange chromatography in conjunction with gradient elution to separate hemoglobin subtypes and variants from hemolyzed blood. The separated hemoglobin fractions were monitored by means of absorption of light at 415 nm.

Wistar rats = assay: Acute intravenous GLP-1 bolus, plasma insulin response in young and old rats; format: in vivo, rat; details: 0.2 nmol/kg iv bolus; for maximal insulin response: 2 min after completion of the bolus
Procedure: Protocols. To insure that old animals were capable of responding to GLP-1, we carried out an acute experiment with an intravenous bolus of GLP-1. Six old (22 months) and 6 young (3 months) Wistar rats were fasted overnight. Following anesthesia with 50 mg/kg pentobarbital, a catheter was placed in the femoral artery for blood sampling, and a bolus of GLP-1 (0.2 nmol/kg) was given into the saphenous vein over 30 sec. Blood (taken at 2, 4, 7, and 10 min) was collected for insulin determination.

[1] = Procedure: (§1) The rats were implanted with an Alzet micro-osmotic pump (Alza Corp., Palo Alto, Calif.) in the interscapular region for 48 hrs. […] Control animals received normal saline in their pumps and received their infusion for the same length of time.
Assays. Plasma glucose was measured by the glucose oxidase method (Egan et al., 1991). […] The amount of cellular proteins was measured using the Bradford method (Bio-Rad Richmond, Calif.) using bovine γ-globulin as standard.

GLUT2 mRNA = assay: Slot-blot quantitation of GLUT2 mRNA in pancreata and islets; format: in vivo, rat
Description: as §1
After an overnight fast, animals were sacrificed, pancreata were removed and frozen in liquid nitrogen as quickly as possible. RNA was extracted by homogenization in guanidinium isothiocyanate, followed by ultracentrifugation on a 5.7 M cesium chloride cushion (Glisin et al., 1974; Chigwin et al., 1979). Poly-A RNA was then prepared from total RNA by affinity chromatography using oligo (dT) columns (Biolabs INC, Beverly, Mass.). RNA was quantified by spectrophotometric analysis at […]. Slot-blot analysis using poly-A RNA was used for quantitation of mRNA levels of glucokinase, which is the main glucose sensor of the beta cell (Matschinsky, 1990), the three hexokinases, GLUT2, the major glucose transporter of the beta cell (Mueckler, 1990), and insulin. Four micrograms of poly-A RNA were diluted in 50 μl TE buffer (Tris-HCL 10 mM, EDTA 1 mM, pH 7.4), 20 μl of 37% formaldehyde and 20 μl of 10× SSC. Samples were incubated at 60° C. for 15 min and then diluted with 1 ml of ice-cold 10× SSC (1×SCC=0.15 M NaCl+0.015 sodium citrate). […]

AR42J cells = assay: Amylase content and CCK response of AR42J cells after 72 h treatment; format: cell-based, rat
Procedure: Amylase Assay. For amylase determination, cells were washed free of medium with 2 ml PBS. Incubation was then carried out in DMEM containing 15 mM HEPES, 0.2% BSA and 0.01% soybean trypsin inhibitor. CCK (1 nM) was added for 50 min at 37° C. The incubation medium was then immediately removed for amylase determination and the cells were again washed in 2 ml ice-cold PBS. Lysate buffer containing (in mM) 130 Tris-HCl, 10 CaCl2, 75 NaCl, and 0.2% Triton X-100 (pH 8.0) was added to the cells and the lysates were then collected for total amylase (Ceska et al., 1969). The released amylase was expressed as the percentage of the total amylase in the cells.

Row | Molecule | half-life (Biological half-life) | trends in glucose and insulin (non-diabetic mice; 12–13 weeks) | Hb A1c (non-diabetic mice; 12–13 weeks, p=0.0002) | fasting glucose level after one week of treatment (non-diabetic mice; NaCl-treated 135±5, p<0.05) | deaths just after receiving exendin-4 (non-diabetic mice; day eight) | maximal insulin response (Wistar rats; old (22 month) fasted rats) | maximal insulin response (Wistar rats; young (3 month) fasted rats) | time at which insulin levels had returned to baseline (Wistar rats; young and old rats) | plasma GLP-1 before commencement of glucose tolerance testing ([1]; 120 min after removal of pumps) | plasma GLP-1 levels relative to fasting levels ([1]; during infusion, fasting levels 10–20 pmol/l) | effect on decreased GLUT-2 mRNA levels (GLUT2 mRNA; old animals (decreased by 70% vs young controls), P<0.001) | effect on GLUT2 mRNA levels (GLUT2 mRNA; young animals) | total amylase content (AR42J cells; GLP-1 added together with dexamethasone, 72 h) | acute amylase response to CCK (1 nM) (AR42J cells; cells pretreated with GLP-1 for 72 h)
1 | exendin-4 | on the order of hours | the same in the non-diabetic animals with exendin-4 treatment though not as dramatic | 3.5% | 70 ± 25 mg/dL | two of the non-diabetic mice |  |  |  |  |  |  |  |  | 
2 | CC[C@H](C)[C@H](NC(=O)[C@H](Cc1ccccc1)NC(=O)[C@H](CCC(=O)O)NC(=O)[C@H](CCCCN)NC(=O)[C@H](C)NC(=O)[C@H](C)NC(=O)[C@H](CCC(N)=O)NC(=O)CNC(=O)[C@H](CCC(=O)O)NC(=O)[C@H](CC(C)C)NC(=O)[C@H](Cc1ccc(O)cc1)NC(=O)[C@H](CO)NC(=O)[C@H](CO)NC(=O)[C@@H](NC(=O)[C@H](CC(=O)O)NC(=O)[C@H](CO)NC(=O)[C@@H](NC(=O)[C@H](Cc1ccccc1)NC(=O)[C@@H](NC(=O)CNC(=O)[C@H](CCC(=O)O)NC(=O)[C@H](C)NC(=O)[C@@H](N)Cc1c[nH]cn1)[C@@H](C)O)[C@@H](C)O)C(C)C)C(=O)N[C@@H](C)C(=O)N[C@@H](Cc1c[nH]c2ccccc12)C(=O)N[C@@H](CC(C)C)C(=O)N[C@H](C(=O)N[C@@H](CCCCN)C(=O)NCC(=O)N[C@@H](CCCNC(=N)N)C(N)=O)C(C)C [GLP-1] |  |  |  |  |  | 347.7 ± 25.7 pmol/L | 373.3±43.7 pmol/1 | 10 min | below the level of detectability | approximately 6 times | entirely reversed | did not significantly influence | 7.76 U/1 | decreased
